Residues, ends and D or L forms follow the SMILES beside them. *: point of attachment. Benzoyl(4-SO2NH2) = NS(=O)(=O)c1ccc(C(=O)*)cc1
How the values were obtained:
wild-type hCAII protein = wild-type hCAII protein (Homo sapiens, UniProt P00918); assay: colorimetric IC50 assay (pNPA hydrolysis) with wild-type hCAII; format: biochemical; conditions: for IC50: 300 nM wild-type hCAII; for Fold Enhancement: relative to NTM M64
Procedure: The colorimetric assay used 300 nM of wild-type carbonic anhydrase incubated in 45 μL of 50 mM MOPS (pH 7.5), 33 mM Na2SO4, and 1 mM EDTA aliquoted into a 96-well, clear, flat-bottom plate. To each column of the plate, a 1/10 dilution series from 1 mM to 0.1 nM of each NTM was added and incubated at 25° C. for 10 minutes to reach binding equilibrium. To this, 1 mM p-nitrophenylacetate (pNPA) was added to each well and screened on a plate reader at 405 nm wavelength. The initial rate of hydrolysis was observed over the first 60 seconds. The slopes versus the concentration of NTM were put into a non-linear regression equation to determine the IC50 of the NTM to the carbonic anhydrase.
The N-terminally modified peptides were then evaluated using colorimetric IC50 assay to determine relative binding affinity of NTM-AAEIR to wild-type hCAII protein based on NTM-AAEIR inhibition capacity. The slopes versus the concentration of NTM-AAEIR were put into a non-linear regression equation to determine the IC50 of the selected NTM-AAEIR peptides to the wild-type hCAII.

[1] = biological target: human carbonic anhydrase II (hCAII) (Homo sapiens, UniProt P00918); assay: hCAII functional assay (hydrolysis of p-nitrophenylacetate, pNP release); format: biochemical; conditions: 1 μM hCAII, 500 μM pNP-OAc, 10 min at 37° C.
Procedure: A functional assay for hCAII enzyme was set up. Carbonic anhydrase catalyzes the hydrolysis of 4-nitrophenyl acetate (4-NPA) to nitrophenol, which can be monitored by absorbance at 400 nm. The enzymatic carbonic anhydrase assay generally includes 0.2-1.0 μM enzyme and 10-500 μM 4-NPA in 20-200 μL in assay buffer. […] Metal chelating agents (EDTA or EGTA), salt (NaCl, sulfate), detergent (Tween or Triton), and organic additives (acetonitrile, DMSO) may be employed to facilitate enzyme stability and reagent solubility. For the assay, 1 μM human carbonic anhydrase II, 50 mM MOPS (pH 7.6), 33 mM disodium sulfate, and 1 mM EDTA. To generate NTM-modified peptides, azide-derivatized peptides (via azide-PEG-amine and carbodiimide coupling to C-terminus of peptide) were conjugated to DBCO-coupled beads. […] To evaluate P1 dependence of the binding reaction, multiple P1 residues has been tested.

Row | Compound | IC50 (wild-type hCAII protein; free NTM) [nM] | Fold Enhancement (wild-type hCAII protein; free NTM) | IC50 [1] [nM] | Fold Enhancement (wild-type hCAII protein; NTM-AAEIR)
1 | Nc1cc(S(N)(=O)=O)ccc1C(=O)O [2-NH2, 2-Amino-4-sulfamoylbenzoic acid] | 1380 | 0.3 | – | –
2 | C[C@H](NC(=O)c1ccc(S(N)(=O)=O)cc1)C(=O)N[C@@H](Cc1ccccc1)C(=O)N[C@@H](C)C(=O)N[C@@H](C)C(=O)N[C@@H](CCC(=O)O)C(N)=O [(SAB)AFAAE] ({Benzoyl(4-SO2NH2)}-AFAAE-NH2) | – | – | 183 | –
3 | C[C@H](NC(=O)[C@H](C)NC(=O)[C@H](Cc1ccccc1)NC(=O)c1ccc(S(N)(=O)=O)cc1)C(=O)N[C@@H](C)C(=O)N[C@@H](CCC(=O)O)C(N)=O [(SAB)FAAAE] ({Benzoyl(4-SO2NH2)}-FAAAE-NH2) | – | – | 45 | –
4 | NS(=O)(=O)c1ccc(C(=O)O)cn1 [M65, 6-Sulfamoylpyridine-3-carboxylic acid] | 211 | 2.2 | – | 0.3
5 | NS(=O)(=O)c1ccc(C(=O)O)nc1 [M66] | 992 | 0.5 | – | –
6 | NS(=O)(=O)c1ccc(C(=O)O)c([N+](=O)[O-])c1 [M67, 2-Nitro-4-sulfamoylbenzoic acid] | 124 | 3.8 | – | 2.0
7 | COc1cc(S(N)(=O)=O)ccc1C(=O)O [M73, 2-Methoxy-4-sulfamoylbenzoic acid] | 65400 | 0.0 | – | –
8 | Cc1cc(S(N)(=O)=O)ccc1C(=O)O [M74, 2-methyl-4-sulfamoylbenzoic acid] | 2040 | 0.2 | – | –
9 | NS(=O)(=O)c1ccc(C(=O)O)c(F)c1 [M75, 2-Fluoro-4-sulfamoylbenzoic acid] | 224 | 2.1 | – | 2.2
10 | NS(=O)(=O)c1ccc(C(=O)O)c(Cl)c1 [M76, 2-Chloro-4-sulfamoylbenzoic acid] | 180 | 2.6 | – | 1.9
11 | NS(=O)(=O)c1ccc(C(=O)O)cc1F [M88, 3-Fluoro-4-sulfamoylbenzoic acid] | 110 | 4.3 | – | 1.6

Source: patent US20220283175A1, “METALLOENZYMES FOR BIOMOLECULAR RECOGNITION OF N-TERMINAL MODIFIED PEPTIDES” (Encodia, Inc., priority 2020, published 2022)
